# According to patent US11844794B2, “Pharmaceutical compositions” (ADEPTIO PHARMACEUTICALS LIMITED, priority 2017, dated 2023):
# Entries after “also recorded” stand apart in the source; their conditions may differ. Where two headings read alike, the source gives them in different places.
# Experiments:
# [1] = biological target: Chromaffin Granule Monoamine Transporter (Bos taurus, UniProt Q27963); conditions: racemic α versus racemic β, in vitro; cited from earlier work
# [2] = solid form stability in slurry / polymorphism by XRPD; assay type: physicochemical; conditions: for crystalline form after stirring in slurry (XRPD): one week
# [3] = equilibrium aqueous solubility by HPLC; assay type: physicochemical
# Description: The aqueous solubilities of salts were measured by an equilibrium method in which an amount of the salt was weighed into a 2 ml vial equipped with a magnetic stirrer bar and water added. In cases where complete dissolution was observed, more material was added until the sample was exhausted. The slurry was then stirred for seven days before isolating the solids by centrifuge-filtration. The solids were analysed by XRPD and the filtrates were analysed by HPLC to determine the amount of (+)-alpha-dihydrotetrabenazine salt in solution. The solubilities were calculated against a calibration curve established for a (+)-alpha-dihydrotetrabenazine sample of known concentration.
# [4] = moisture-sorption analysis; assay type: physicochemical; conditions: for moisture uptake: 25° C.
# Description: Moisture-sorption analysis was carried out using a Hiden IGA Sorp moisture-sorption analyser. […] The sample was then subjected to an isothermal (at 25° C.) adsorption scan from 40 to 90% relative humidity in steps of 10%. The sample was allowed to equilibrate to an asymptotic weight at each point for a maximum of four hours. […] An adsorption scan was then performed from 0 to 40% relative humidity inn steps of 10%. The sample was dried for two hours at 60° C. and 0% relative humidity, and the resulting solid was analysed by XRPD.
# [5] = thermal gravimetric analysis (TGA) / thermal stability; conditions: for TGA weight loss: 30-300° C. at 10° C./minute
# Description: Differential scanning calorimetry (DSC) was carried out on the sample “as is” using a Mettler DSC1 instrument. The sample was weighed I an aluminium pan, covered with a pierced lid, and then crimped and analysed from 30-300° C. at 10° C./minute.
# Thermal gravimetric analysis was performed on the sample “as is” using a Mettler 851^e TGA instrument. The sample was weighed in an alumina crucible and analysed from 30-300° C. at 10° C./minute.
# [6] = test system: non-amphetamine induced rats; experiment: locomotor activity in rats without amphetamine induction, open field test; assay type: in vivo, rat; conditions: Study 3, non-induced rats, 1 mg/kg
# Description: (§1) All animal experiments were carried out according to the National Institute of Health (NIH) guidelines for the care and use of laboratory animals, and approved by the National Animal Experiment Board, Finland. Male CD (Charles River Laboratories, Germany) at weight range of 200-250 g (165-200 g upon arrival) were used for the experiments. Animals were housed at a standard temperature (22±1° C.) and in a light-controlled environment (lights on from 7 am to 8 pm) with ad libitum access to food and water.
# (§2) Locomotor activity of the rats was tested in open field arena. The open field test was performed during the rat light cycle and under a normal lighting evenly distributed to the test chambers. The paths of the rats were recorded by activity monitor (Med. Associates Inc.).
# (§3) Dosing the vehicle, vehicle-amphetamine, (+)-α-DHTBZ or risperidone was done prior to LMA test. The rats were placed in the centre of the arena, and the path was recorded for 60 minutes.
# Animals were grouped as follows: • Group 1: 10 rats treated with Vehicle • Group 2: 10 rats treated with (+)-α-DHTBZ 2.5 mg/kg • Group 3: 10 rats treated with (+)-α-DHTBZ 5 mg/kg • Group 4: 10 rats treated with risperidone 1 mg/kg
# amphetamine-induced rats = experiment: amphetamine-induced locomotor activity, open field test; assay type: in vivo, rat; conditions: male CD rats
# Description: as §1, §2, §3
# Animals were grouped as follows: • Group 1: 10 rats treated with Vehicle (t=0 min) and Vehicle (t=30 min) • Group 2: 10 rats treated with Vehicle (t=0 min) and Amphetamine (t=30 min) • Group 3: 10 rats treated with (+)-α-DHTBZ 0.5 mg/kg (t=0 min) and Amphetamine (t=30 min) • Group 4: 10 rats treated with (+)-α-DHTBZ 1 mg/kg (t=0 min) and Amphetamine (t=30 min) • Group 5: 10 rats treated with (+)-α-DHTBZ 1.5 mg/kg (t=0 min) and Amphetamine (t=30 min) • Group 6: 10 rats treated with (+)-α-DHTBZ 2 mg/kg (t=0 min) and Amphetamine (t=30 min) • Group 7: 10 rats treated with risperidone 1 mg/kg (t=0 min) and Amphetamine (t=30 min)
# (§4) Rats dosed with either vehicle, (+)-α-DHTBZ 0.5 mg/kg, (+)-α-DHTBZ 1 mg/kg, (+)-α-DHTBZ 1.5 mg/kg, (+)-α-DHTBZ 2 mg/kg or Risperidone 1 mg/kg were subjected to LMA testing first for 30 min and then for 60 minutes after vehicle or amphetamine challenge. Resulting locomotor activity was evaluated in 3 min bins and as a total over the testing period.
# as §4, with “stereotypic” for “locomotor”, “period. […]” for “period.”
# [7] = test system: patients suffering from tardive dyskinesia; conditions: cited from earlier work
# [8] = test system: Tardive Dyskinesia sufferers; conditions: Valbenazine 80 mg/day; cited from earlier work
# Chromaffin Granule Monoamine Transporter, sequence (Q27963 whole entry): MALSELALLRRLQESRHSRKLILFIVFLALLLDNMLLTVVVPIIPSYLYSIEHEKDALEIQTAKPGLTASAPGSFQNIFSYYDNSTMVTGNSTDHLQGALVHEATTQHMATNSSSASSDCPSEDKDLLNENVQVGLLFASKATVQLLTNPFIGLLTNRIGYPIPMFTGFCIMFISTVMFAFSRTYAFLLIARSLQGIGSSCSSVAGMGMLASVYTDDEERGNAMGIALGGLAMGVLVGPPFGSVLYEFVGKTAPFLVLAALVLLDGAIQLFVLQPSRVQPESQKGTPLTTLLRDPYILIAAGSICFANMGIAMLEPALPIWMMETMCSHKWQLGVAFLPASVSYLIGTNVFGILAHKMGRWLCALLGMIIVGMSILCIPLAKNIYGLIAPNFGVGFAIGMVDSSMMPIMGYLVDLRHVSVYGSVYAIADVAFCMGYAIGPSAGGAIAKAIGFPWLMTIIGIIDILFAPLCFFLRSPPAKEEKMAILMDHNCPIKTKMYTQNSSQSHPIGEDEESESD
compound,measurement,setting,value
α-dihydrotetrabenazine,higher affinity than the β-isomer,[1],3- to 4 fold
COc1cc2c(cc1OC)[C@H]1C[C@@H](O)[C@H](CC(C)C)CN1CC2.O=S(=O)(O)c1ccccc1 [benzenesulphonate salt],polymorphism,[2],no apparent polymorphism
same,crystalline form after stirring in slurry (XRPD),"[2]; water, ethanol and ethyl acetate slurry",remained unchanged
same,equilibrium solubility in water,"[3]; water, measured by HPLC",2.20 mg/mL
same,moisture uptake,[4]; 60% relative humidity,0.2 wt %
same,moisture uptake,[4]; 90% relative humidity,1.7 wt %
same,hygroscopicity,[4]; gravimetric moisture-sorption,slightly hygroscopic
same,TGA weight loss,[5],No weight loss
same,thermal stability,[5]; from DSC and TGA,good thermal stability
"COc1cc2c(cc1OC)[C@H]1C[C@@H](O)[C@H](CC(C)C)CN1CC2.Cl [HCl salt form A, (+)-α-dihydrotetrabenazine hydrochloride]",polymorphism,[2],undesirable polymorphism
same,crystalline form after stirring in slurry (XRPD),[2]; aqueous slurry,conversion to a different (by XRPD) crystalline form
same,equilibrium solubility in water,[3],203 mg/mL
same,solubility thermodynamic,[3],203 mg/mL
same,TGA weight loss,[5],No weight loss
"Cc1nc2n(c(=O)c1CCN1CCC(c3noc4cc(F)ccc34)CC1)CCCC2 [risperidone, reference compound]",total movement versus vehicle,[6],reduced total movement
same,total stereotypic behaviour versus vehicle,[6],reduced total stereotypic behaviour
same,total distance travelled compared to vehicle-amphetamine group,"amphetamine-induced rats; Study 1, 1 mg/kg",lower locomotor activity
same,total stereotypic behaviour compared to vehicle-amphetamine group,"amphetamine-induced rats; Study 1, 1 mg/kg",significantly different; also recorded: reduced stereotypic behaviour
same,total distance travelled compared to vehicle-amphetamine group,"amphetamine-induced rats; Study 2, 1 mg/kg",lower locomotor activity
same,total stereotypic behaviour compared to vehicle-amphetamine group,"amphetamine-induced rats; Study 2, 1 mg/kg",significantly different; also recorded: reduced stereotypic behaviour
COc1cc2c(cc1OC)[C@H]1C[C@@H](OC(=O)[C@@H](N)C(C)C)[C@H](CC(C)C)CN1CC2 [Valbenazine],improvement scored with AIMS,[7]; Valbenazine 50 mg/day,did not show any significant signs of improvement
same,reduction of symptoms (AIMS),[7]; Valbenazine 100 mg/day,some reduction of symptoms
same,Abnormal Involuntary Movement Score,[8],significant improvement
